Assay results published in publication PMC8195388, “Heterologous Expression of Cyclodextrin Glycosyltransferase my20 in Escherichia coli and Its Application in 2-O-α-D-Glucopyranosyl-L-Ascorbic Acid Production” (Frontiers in Microbiology, 2021).

Test system: T1, recombinant CGTase MY20 (my20)
T1 construct: codon-optimized my20 gene in pET-24a(+), E. coli BL21(DE3), intracellular, Ni-NTA purified
Assay: AA-2G synthesis, HPLC […] nm, ping-pong fit
Assay type: biochemical, metagenome: marine microorganisms, Mariana Trench
Settings: pH 5, 40°C

KmA (glucosyl acceptor, co-substrate beta-cyclodextrin 0.5-25 g/L)	KmB (glucosyl donor, co-substrate L-ascorbic acid 1-50 g/L)	SMILES
9.2 ± 0.06 g/L		O=C1O[C@H]([C@@H](O)CO)C(O)=C1O [L-ascorbic acid]
	6.9 ± 0.04 g/L	OC[C@H]1O[C@@H]2O[C@H]3[C@H](O)[C@@H](O)[C@@H](O[C@H]4[C@H](O)[C@@H](O)[C@@H](O[C@H]5[C@H](O)[C@@H](O)[C@@H](O[C@H]6[C@H](O)[C@@H](O)[C@@H](O[C@H]7[C@H](O)[C@@H](O)[C@@H](O[C@H]8[C@H](O)[C@@H](O)[C@@H](O[C@H]1[C@H](O)[C@H]2O)O[C@@H]8CO)O[C@@H]7CO)O[C@@H]6CO)O[C@@H]5CO)O[C@@H]4CO)O[C@@H]3CO [β-CD]
